Results from patent EP3815699A1, “NEW MEANS AND METHODS FOR THERAPY AND DIAGNOSIS OF […]” (Technische Universität München, priority 2019, dated 2021).
“Also recorded” adds a separate entry of the source. Where two headings read alike, the source gives them in different places.

Columns and labels:
H1299 cells = format: cell-based, Human; conditions: lower panel
Procedure: • Figure 1: ATO efficiently reduces HAdV infectivity (cf. Example 1). H1299 cells were infected with HAdV-C5 wt at a multiplicity of 5 FFU/cell, treated with the depicted concentrations of ATO at 2 h.p.i., fixed 48 h.p.i. with 4 % PFA and double labeled with mAb B6-8 (α-E2A) and pAb L133 (α-Capsid). Primary antibodies were detected using Alexa488 (E2A, green) and Alexa568 (Capsid, red) conjugated secondary antibodies. (A) The number of E2A and Capsid expressing cells, respectively, was counted in n=40 overview pictures (not shown), normalized to untreated, infected cells, and represented in bar charts. Bar charts represent average values and standard deviations based on four independent experiments. (B) H1299 cells were infected with HAdV-C5 at a multiplicity of 20 FFU/cell, and treated with the depicted concentrations of ATO at 2 h.p.i.. Viral particles were harvested 48 h.p.i. and virus yield was determined by quantitative E2A immunofluorescence staining in 293 cells. Bar charts represent average values and standard deviations based on three independent experiments. Statistically significant differences were determined using a two-sided Welch's t-test. *: P ≤ 0.05, **: P ≤ 0.01, ***: P ≤ 0.001, ****: P ≤ 0.0001. • Figure 2: ATO induces a dose dependent reduction of HAdV infectivity with minor effects on cell viability (cf. Example 2). […] 24 or 48 h.p.i., cell viability was assessed using the Promega CellTiter-Blue Cell Viability Assay system, prior to fixation with 4 % PFA and cells were double labeled with mAb B6-8 (α-E2A) and pAb L133 (α-Capsid). Primary antibodies were detected using Alexa488 (E2A, green) and Alexa647 (Capsid, red) conjugated secondary antibodies. Fluorescence intensity was measured using a Tecan Infinite 200M plate reader using an excitation and emission wavelength of 488 and 520nm for Alexa488 and 640 and 670nm for Alexa647 respectively. Fluorescence intensity was normalized to untreated, infected cells at 48h p.i.. xy charts represent average values and standard deviations based on three independent experiments measured in triplicates. […]

HAdV-C5 wt [1] = test: Quantitative RT-PCR of viral E1A and Hexon mRNA (Fig. 3B); format: cell-based; conditions: 2µM ATO, 48h
HAdV-C5 wt [2] = test: Western blot of viral protein expression (Fig. 3C); format: cell-based; conditions: 1 and 2µM ATO
[3] = system: HAdV-C5 delta E3 virus, encoding a CMV promoter driven eGFP expression cassette; test: GFP fluorescence of replication competent GFP-expressing virus in H1299 cells (Fig. 2B); format: cell-based; conditions: for IC50: read-out: IC50 (HAdV infection, GFP)
Procedure: • Figure 1: ATO efficiently reduces HAdV infectivity (cf. Example 1). H1299 cells were infected with HAdV-C5 wt at a multiplicity of 5 FFU/cell, treated with the depicted concentrations of ATO at 2 h.p.i., fixed 48 h.p.i. with 4 % PFA and double labeled with mAb B6-8 (α-E2A) and pAb L133 (α-Capsid). Primary antibodies were detected using Alexa488 (E2A, green) and Alexa568 (Capsid, red) conjugated secondary antibodies. (A) The number of E2A and Capsid expressing cells, respectively, was counted in n=40 overview pictures (not shown), normalized to untreated, infected cells, and represented in bar charts. Bar charts represent average values and standard deviations based on four independent experiments. (B) H1299 cells were infected with HAdV-C5 at a multiplicity of 20 FFU/cell, and treated with the depicted concentrations of ATO at 2 h.p.i.. Viral particles were harvested 48 h.p.i. and virus yield was determined by quantitative E2A immunofluorescence staining in 293 cells. Bar charts represent average values and standard deviations based on three independent experiments. Statistically significant differences were determined using a two-sided Welch's t-test. *: P ≤ 0.05, **: P ≤ 0.01, ***: P ≤ 0.001, ****: P ≤ 0.0001. • Figure 2: ATO induces a dose dependent reduction of HAdV infectivity with minor effects on cell viability (cf. Example 2). (A) H1299 cells were infected with HAdV-C5 wt at a multiplicity of 20 FFU/cell and treated with the depicted concentrations of ATO at 2 h.p.i.. 24 or 48 h.p.i., cell viability was assessed using the Promega CellTiter-Blue Cell Viability Assay system, prior to fixation with 4 % PFA and cells were double labeled with mAb B6-8 (α-E2A) and pAb L133 (α-Capsid). Primary antibodies were detected using Alexa488 (E2A, green) and Alexa647 (Capsid, red) conjugated secondary antibodies. Fluorescence intensity was measured using a Tecan Infinite 200M plate reader using an excitation and emission wavelength of 488 and 520nm for Alexa488 and 640 and 670nm for Alexa647 respectively. Fluorescence intensity was normalized to untreated, infected cells at 48h p.i.. xy charts represent average values and standard deviations based on three independent experiments measured in triplicates. (B) H1299 cells were infected with an HAdV-C5 delta E3 virus, encoding a CMV promoter driven eGFP expression cassette, at a multiplicity of 20FFU/cell and treated with the depicted concentrations of ATO at 2h p.i.; 24 or 48 h p.i. cell viability was assessed using the Promega CellTiter-Blue Cell Viability Assay system, and GFP fluorescence intensity was measured using a Tecan Infinite 200M plate reader using an excitation and emission wavelength of 488 and 520nm. Fluorescence intensity was normalized to untreated, infected cells at 48h p.i.; xy charts represent average values and standard deviations based on three independent experiments measured in triplicates. (C) H1299 cells were infected with an eGFP expressing HAdV-C5 based first generation adenoviral vector at a multiplicity of 20 FFU/cell and treated with the depicted concentrations of ATO at 2h p.i.; 24 or 48h p.i., cell viability was assessed using the Promega CellTiter-Blue Cell Viability Assay system, and GFP fluorescence intensity was measured using a Tecan Infinite 200M plate reader using an excitation and emission wavelength of 488 and 520nm. […]

HAdV-C5 wt [4] = test: Tecan plate reader measurement of E2A and capsid immunofluorescence intensity in infected H1299 cells (Fig. 2A); format: cell-based
Procedure: • Figure 1: ATO efficiently reduces HAdV infectivity (cf. Example 1). H1299 cells were infected with HAdV-C5 wt at a multiplicity of 5 FFU/cell, treated with the depicted concentrations of ATO at 2 h.p.i., fixed 48 h.p.i. with 4 % PFA and double labeled with mAb B6-8 (α-E2A) and pAb L133 (α-Capsid). Primary antibodies were detected using Alexa488 (E2A, green) and Alexa568 (Capsid, red) conjugated secondary antibodies. (A) The number of E2A and Capsid expressing cells, respectively, was counted in n=40 overview pictures (not shown), normalized to untreated, infected cells, and represented in bar charts. Bar charts represent average values and standard deviations based on four independent experiments. (B) H1299 cells were infected with HAdV-C5 at a multiplicity of 20 FFU/cell, and treated with the depicted concentrations of ATO at 2 h.p.i.. Viral particles were harvested 48 h.p.i. and virus yield was determined by quantitative E2A immunofluorescence staining in 293 cells. Bar charts represent average values and standard deviations based on three independent experiments. Statistically significant differences were determined using a two-sided Welch's t-test. *: P ≤ 0.05, **: P ≤ 0.01, ***: P ≤ 0.001, ****: P ≤ 0.0001. • Figure 2: ATO induces a dose dependent reduction of HAdV infectivity with minor effects on cell viability (cf. Example 2). (A) H1299 cells were infected with HAdV-C5 wt at a multiplicity of 20 FFU/cell and treated with the depicted concentrations of ATO at 2 h.p.i.. 24 or 48 h.p.i., cell viability was assessed using the Promega CellTiter-Blue Cell Viability Assay system, prior to fixation with 4 % PFA and cells were double labeled with mAb B6-8 (α-E2A) and pAb L133 (α-Capsid). Primary antibodies were detected using Alexa488 (E2A, green) and Alexa647 (Capsid, red) conjugated secondary antibodies. Fluorescence intensity was measured using a Tecan Infinite 200M plate reader using an excitation and emission wavelength of 488 and 520nm for Alexa488 and 640 and 670nm for Alexa647 respectively. Fluorescence intensity was normalized to untreated, infected cells at 48h p.i.. xy charts represent average values and standard deviations based on three independent experiments measured in triplicates. (B) H1299 cells were infected with an HAdV-C5 delta E3 virus, encoding a CMV promoter driven eGFP expression cassette, at a multiplicity of 20FFU/cell and treated with the depicted concentrations of ATO at 2h p.i.; 24 or 48 h p.i. cell viability was assessed using the Promega CellTiter-Blue Cell Viability Assay system, and GFP fluorescence intensity was measured using a Tecan Infinite 200M plate reader using an excitation and emission wavelength of 488 and 520nm. Fluorescence intensity was normalized to untreated, infected cells at 48h p.i.; xy charts represent average values and standard deviations based on three independent experiments measured in triplicates. (C) H1299 cells were infected with an eGFP expressing HAdV-C5 based first generation adenoviral vector at a multiplicity of 20 FFU/cell and treated with the depicted concentrations of ATO at 2h p.i.; 24 or 48h p.i., cell viability was assessed using the Promega CellTiter-Blue Cell Viability Assay system, and GFP fluorescence intensity was measured using a Tecan Infinite 200M plate reader using an excitation and emission wavelength of 488 and 520nm. Fluorescence intensity was normalized to untreated, infected cells at 48h p..i.; xy charts represent average values and standard deviations based on three independent experiments measured in triplicates. (D) A549 cells were infected with an HAdV-C5 delta E3 virus, encoding a CMV promoter driven eGFP expression cassette, at a multiplicity of 20FFU/cell and treated with the depicted concentrations of ATO at 2h p.i.. GFP-fluorescence, as well as cell growth via phase contrast-imaging was assessed for 48 h with a 2h increment using an IncuCyte S3 Live-Cell Analysis System. […]

For arsenic trioxide [ATO], the “cellular cytotoxicity of ATO” value (H1299 cells; H1299 infected with HAdV-C5 wt, ATO 0-10 µM, Fig. 2A) was “no clear effect”, the “cellular cytotoxicity of ATO” value (H1299 cells; H1299 infected with non-replicating eGFP vector, ATO 0-8µM, Fig. 2C) was “no clear effect” and the “cellular cytotoxicity of ATO” value (H1299 cells; H1299 infected with replication competent HAdV-GFP, Fig. 2B) was “no clear effect”. The “inhibition of Hexon viral mRNA expression” value (HAdV-C5 wt [1]) was 60%, the E1B-55K viral protein (HAdV-C5 wt [2]) was “decrease” and the E4orf6 viral protein (HAdV-C5 wt [2]) was “decrease”. The “expression of the early viral protein E2A” value (HAdV-C5 wt [2]) was “decrease”, the “late capsid and capsid associated proteins” value (HAdV-C5 wt [2]) was “decrease” and the “viral early and late protein synthesis” value (HAdV-C5 wt [2]; 48 h.p.i.) was “significantly impaired”. For the same substance, the “inhibition of adenoviral infection” value ([3]; 2µM ATO, 48h p.i.) was “more than 50%”, the “inhibition of adenoviral infection” value ([3]; 4µM ATO, 24h p.i.) was “up to 75%” and the “inhibition of adenoviral infection” value ([3]; 4µM ATO, 48h p.i.) was “more than 75%”. The IC50 ([3]; 24h p.i.) was 1610 nM, the IC50 ([3]; 48 h p.i.) was 1180 nM and the “reduction of capsid expression” value (HAdV-C5 wt [4]; 2µM ATO, 48h p.i.) was 40%. For the same substance, the “reduction of E2A protein expression” value (HAdV-C5 wt [4]; 4µM ATO, 24h p.i.) was “more than 50%”, the “E2A expression compared to the untreated control” value (HAdV-C5 wt [4]; 4µM ATO, 24h p.i., Fig. 2A) was “less than 50%” and the “capsid detection / capsid expression” value (HAdV-C5 wt [4]; 4µM ATO, 48h p.i.) was “complete loss”. The “E2A expression reduced to” value (HAdV-C5 wt [4]; 4µM ATO, 48h p.i., remaining expression) was 60% and the “HAdV E2A protein expression” value (HAdV-C5 wt [4]; 8µM ATO, 24h p.i., Fig. 2A) was “completely block; also recorded: completely blocking”.
